Experiments:
[1] = tested on: MDCK cells; test: MTT cytotoxicity assay, MDCK (non-tumor); assay type: cell-based, canine; conditions: MTT, 72 h, mean ± SD (n = 3), non-tumor cells
From the text: (§1) HepG2 (human hepatocellular carcinoma), Hela (human cervical cancer), HT-29 (human colon carcinoma), MDCK (Madin–Darby canine kidney), H9C2 (rat myocardial cells) and HY926 were purchased from the Chinese Academy of Medical Sciences and Peking Union Medical College. All of these cell lines were maintained in RPMI-1640 (DMEM) supplemented with 10% (v/v) fetal bovine serum (FBS) and 1% (v/v) penicillin/streptomycin (Thermo Technologies, New York, NY, USA) under a humidified atmosphere containing 5% CO2 at 37 °C. To provide stock solutions which were used to prepare various concentrations of treatment media, GA and hybrids were added a volume of DMSO.
(§2) The cytotoxicity of these compounds was evaluated on three human cancer cell lines (HepG2, HT-29, Hela) and three non-tumor cells lines (MDCK, HY926, H9C2) and MTT assay was performed to detect the cell proliferation. Simply, exponentially growing cells were cultured in 96-well plates (3 × 10^3 cells/well). And the plates were placed in a humidified atmosphere for 72 h at 37 °C with 5% CO2. After added MTT solution (5 mg/mL) 20 μL to each well, the plate was incubated for a further 4 h. Then the cell supernatant was removed and 150 μL DMSO was added. Finally, the absorbance was determined at wavelength of 490 nm with the ELISA. Wells without drugs were used to be blanks. The IC50 values were calculated using Logit-method. The following Eq. (1) was proposed to calculate the inhibitory rate of cell growth:1 %inhibition=1-Sample group OD/Control group OD×100%

[2] = tested on: H9C2 cells; test: MTT cytotoxicity assay, H9C2 (non-tumor); assay type: cell-based, rat; conditions: MTT, 72 h, mean ± SD (n = 3), non-tumor cells
From the text: as §1, §2

[3] = tested on: HT-29 cells; test: MTT cytotoxicity assay, HT-29; assay type: cell-based, human; conditions: mean ± SD (n = 3)
From the text: as §1, §2

[4] = tested on: Hela cells; test: MTT cytotoxicity assay, Hela; assay type: cell-based, human; conditions: MTT, 72 h, mean ± SD (n = 3)
From the text: as §1, §2

[5] = tested on: HY926 cells; test: MTT cytotoxicity assay, HY926 (non-tumor); assay type: cell-based; conditions: MTT, 72 h, mean ± SD (n = 3), non-tumor cells
From the text: as §1, §2

[6] = tested on: HepG2 cells; test: MTT cytotoxicity assay, HepG2; assay type: cell-based, human; conditions: mean ± SD (n = 3)
From the text: as §1, §2

| SMILES | IC50 [1] [µM] | IC50 [2] [µM] | IC50 ([3]; 72 h) [µM] | IC50 [4] [µM] | IC50 [5] [µM] | IC50 ([6]; 72 h) [µM] | IC50 ([1]; listed as DDP) [µM] | IC50 ([2]; listed as DDP) [µM] | IC50 ([5]; listed as DDP) [µM] | IC50 ([1]; Canis lupus familiaris, MDCK) [µM] | IC50 ([2]; Rattus norvegicus, H9c2) [µM] | IC50 ([3]; Homo sapiens, HT-29, 72 h) [µM] | IC50 ([4]; Homo sapiens, HeLa) [µM] | IC50 ([6]; Homo sapiens, HepG2, 72 h) [µM] |
| --- | --- | --- | --- | --- | --- | --- | --- | --- | --- | --- | --- | --- | --- | --- |
| CC1(C)[C@@H](OC(=O)/C=C/c2ccccc2)CC[C@]2(C)[C@H]3C(=O)C=C4[C@@H]5C[C@@](C)(C(=O)O)CC[C@]5(C)CC[C@@]4(C)[C@]3(C)CC[C@@H]12 [Compound 1a, Cinnamoyl-3β-hydroxy-11-oxoolean-12-en-30-oic acid] | 22.6 ± 1.38 | 46.1 ± 2.01 | 22.3 ± 1.75 | 23.7 ± 2.98 | 28.9 ± 1.85 | 24.4 ± 1.39 | – | – | – | – | – | – | – | – |
| CC1(C(=O)O)CCC2(C)CCC3(C)C(=CC(=O)C4C5(C)CCC(OC(=O)CCc6ccccc6)C(C)(C)C5CCC43C)C2C1 (stereo not drawn) [Compound 1b, Phenylpropanoyl-3β-hydroxy-11-oxoolean-12-en-30-oic acid] | 33.3 ± 2.98 | > 50 | 28.6 ± 2.99 | 26.9 ± 1.74 | 33.6 ± 3.09 | 32.3 ± 1 | – | – | – | – | – | – | – | – |
| Cc1ccc(/C=C/C(=O)OC2CCC3(C)C(CCC4(C)C3C(=O)C=C3C5CC(C)(C(=O)O)CCC5(C)CCC34C)C2(C)C)cc1 (stereo not drawn) [Compound 2a, (4-Methyl) cinnamoyl-3β-hydroxy-11-oxoolean-12-en-30-oic acid] | 38 ± 1.81 | > 50 | 21.7 ± 1.81 | 14.2 ± 1.1 | 27.6 ± 1.84 | 22.1 ± 1.18 | – | – | – | – | – | – | – | – |
| COc1cccc(CCC(=O)OC2CCC3(C)C(CCC4(C)C3C(=O)C=C3C5CC(C)(C(=O)O)CCC5(C)CCC34C)C2(C)C)c1OC (stereo not drawn) [Compound 2b, (2,3-Dimethoxy) phenylpropanoyl-3β-hydroxy-11-oxoolean-12-en-30-oic acid] | 41.3 ± 1.48 | 45.8 ± 1.8 | 29.3 ± 2.22 | 23.1 ± 2.33 | > 50 | 33.1 ± 2.09 | – | – | – | – | – | – | – | – |
| COc1ccccc1/C=C/C(=O)OC1CCC2(C)C(CCC3(C)C2C(=O)C=C2C4CC(C)(C(=O)O)CCC4(C)CCC23C)C1(C)C (stereo not drawn) [Compound 3a, (2-Methoxy) cinnamoyl-3β-hydroxy-11-oxoolean-12-en-30-oic acid] | 22.9 ± 2.43 | > 50 | 22.2 ± 2.34 | 24.6 ± 1.72 | > 50 | 32 ± 1.9 | – | – | – | – | – | – | – | – |
| COc1ccc(CCC(=O)O[C@H]2CC[C@]3(C)[C@H]4C(=O)C=C5[C@@H]6C[C@@](C)(C(=O)O)CC[C@]6(C)CC[C@@]5(C)[C@]4(C)CC[C@H]3C2(C)C)c(OC)c1OC [Compound 3b, (2,3,4-Trimethoxy) phenylpropanoyl-3β-hydroxy-11-oxoolean-12-en-30-oic acid] | > 30 | > 50 | 26.2 ± 1.24 | 22.5 ± 2.16 | 38.5 ± 2.02 | 27.3 ± 1.95 | – | – | – | – | – | – | – | – |
| COc1cccc(/C=C/C(=O)OC2CCC3(C)C(CCC4(C)C3C(=O)C=C3C5CC(C)(C(=O)O)CCC5(C)CCC34C)C2(C)C)c1 (stereo not drawn) [Compound 4a, (3-Methoxy) cinnamoyl-3β-hydroxy-11-oxoolean-12-en-30-oic acid] | 22.2 ± 2.56 | > 50 | 14.9 ± 1.8 | 17.5 ± 1.52 | 31 ± 1.87 | 12.7 ± 1.1 | – | – | – | – | – | – | – | – |
| COc1cc(CCC(=O)OC2CCC3(C)C(CCC4(C)C3C(=O)C=C3C5CC(C)(C(=O)O)CCC5(C)CCC34C)C2(C)C)cc(OC)c1OC (stereo not drawn) [Compound 4b, (3,4,5-Trimethoxy) phenylpropanoyl-3β-hydroxy-11-oxoolean-12-en-30-oic acid] | > 30 | > 50 | 22.4 ± 1.2 | 28.7 ± 1.68 | > 50 | 22.4 ± 1.29 | – | – | – | – | – | – | – | – |
| COc1ccc(C=CC(=O)OC2CCC3(C)C(CCC4(C)C3C(=O)C=C3C5CC(C)(C(=O)O)CCC5(C)CCC34C)C2(C)C)cc1 (stereo not drawn) [Compound 5a, (4-Methoxy) cinnamoyl-3β-hydroxy-11-oxoolean-12-en-30-oic acid] | 21.7 ± 1.01 | 36.1 ± 1.92 | 33 ± 1.92 | 23.4 ± 1.38 | > 50 | 31.2 ± 1.34 | – | – | – | – | – | – | – | – |
| COc1cccc(/C=C/C(=O)OC2CCC3(C)C(CCC4(C)C3C(=O)C=C3C5CC(C)(C(=O)O)CCC5(C)CCC34C)C2(C)C)c1OC (stereo not drawn) [Compound 6a, (2,3-Dimethoxy) cinnamoyl-3β-hydroxy-11-oxoolean-12-en-30-oic acid] | 33.7 ± 1.4 | > 50 | 24.4 ± 1.76 | 22.5 ± 2.08 | 25 ± 1.38 | 24.4 ± 1.44 | – | – | – | – | – | – | – | – |
| COc1ccc(OC)c(/C=C/C(=O)OC2CCC3(C)C(CCC4(C)C3C(=O)C=C3C5CC(C)(C(=O)O)CCC5(C)CCC34C)C2(C)C)c1 (stereo not drawn) [Compound 7a, (2,5-Dimethoxy) cinnamoyl-3β-hydroxy-11-oxoolean-12-en-30-oic acid] | > 50 | > 50 | 26.4 ± 1.96 | 28 ± 1.63 | 45.1 ± 2.25 | 25.4 ± 1.97 | – | – | – | – | – | – | – | – |
| COc1cc(/C=C/C(=O)O[C@H]2CC[C@]3(C)[C@H]4C(=O)C=C5[C@@H]6C[C@@](C)(C(=O)O)CC[C@]6(C)CC[C@@]5(C)[C@]4(C)CC[C@H]3C2(C)C)cc(OC)c1OC [Compound 9a, (3,4,5-Trimethoxy) cinnamoyl-3β-hydroxy-11-oxoolean-12-en-30-oic acid] | 27.7 ± 1.08 | 47.4 ± 1.07 | 25.5 ± 1.29 | 30.7 ± 1.89 | 30.8 ± 1.37 | 21.9 ± 1.41 | – | – | – | – | – | – | – | – |
| N.N.[Cl][Pt][Cl] [DPP, cisplatin, reference compound] | 9.97 ± 1.12 | 5.31 ± 0.26 | 5.28 ± 0.74 | 3.76 ± 0.38 | 5.12 ± 0.71 | 4.57 ± 0.85 | < 10 | < 10 | < 10 | – | – | – | – | – |
| CC1(C)[C@@H](O)CC[C@]2(C)[C@H]3C(=O)C=C4[C@@H]5C[C@@](C)(C(=O)O)CC[C@]5(C)CC[C@@]4(C)[C@]3(C)CC[C@@H]12 [GA, Glycyrrhetinic acid] | – | – | – | – | > 100 | – | – | – | – | > 100 | > 100 | > 50 | > 50 | > 50 |
